# In paper PMC9309146 (Advances in Therapy, 2022):
# Where two headings read alike, the source gives them in different places.
# Experiments:
# Population PK = format: in vivo, human
# Exposure-safety analysis = format: in vivo, human; conditions: logistic regression
# [1] = MURANO popPK evaluation ref 24; cited from earlier work
# [2] = legacy popPK analysis ref 20; cited from earlier work
compound,measurement,setting,value
CC1(C)CCC(CN2CCN(c3ccc(C(=O)NS(=O)(=O)c4ccc(NCC5CCOCC5)c([N+](=O)[O-])c4)c(Oc4cnc5[nH]ccc5c4)c3)CC2)=C(c2ccc(Cl)cc2)C1 [venetoclax],rituximab co-administration effect: increase in CL/F,Population PK; current analysis,7%
same,increase in F1,Population PK; dose decrease from 400 to 200 mg,11.0%
same,decrease in F1,Population PK; dose increase from 400 to 800 mg,9.9%
same,decrease in F1,Population PK; fasting state relative to low-fat state,66.2%
same,V2/F lower,Population PK; females than males,29.7%
same,effect of obinutuzumab co-administration on CL/F and F1,Population PK; forward addition covariate testing,no effect
same,increase in F1,Population PK; high-fat meal relative to low-fat,44.3%
same,"relationship between CL/F and body weight, age, gender, mild or moderate hepatic or renal impairment, CrCL, bilirubin, ALT, AST, albumin, P-glycoprotein or weak CYP3A inhibitors","Population PK; human, in vivo",no relationship was observed
same,increase in F1,Population PK; meal-fed state without specification of fat content,28.9%
same,increase in F1,Population PK; moderate-fat meal relative to low-fat,40.4%
same,V2/F higher,Population PK; patients compared with healthy individuals,73.3%
same,decrease in CL/F,Population PK; with OATP1B3 hepatic uptake transporter inhibitors,13.6%
same,decrease in CL/F,Population PK; with moderate CYP3A inhibitors,13.9%
same,decrease in CL/F,Population PK; with strong CYP3A inhibitors,82.2%
same,"p value, association of CmeanSS,nominal with probability of SAEs",Exposure-safety analysis,0.214
same,"p value, association of CmeanSS,nominal with probability of grade ≥ 3 infections",Exposure-safety analysis,0.149
same,rituximab co-administration effect: decrease in CL/F,[1],7%
same,rituximab co-administration effect: increase in CL/F,[2],22%
